# The supplement of paper PMC13386468
# How the values were obtained:
# Assay in all cases: IC50 for competition of protein binding to Kinobeads
# Conditions in all cases: assay detail: Kinobeads competition in P. falciparum blood-stage lysate
# [1] = target: UniProt C0H4Z7
# [2] = target: UniProt C0H516
# [3] = target: UniProt C0H586
# [4] = target: UniProt O96203
# [5] = target: UniProt O97250
# [6] = target: UniProt O97284
# [7] = target: UniProt Q76NM8
# [8] = target: UniProt Q76NN6
# [9] = target: UniProt Q7KQL3
# [10] = target: UniProt Q8I0U7
# [11] = target: UniProt Q8I0V2
# [12] = target: UniProt Q8I1R5
# [13] = target: UniProt Q8I1T8
# [14] = target: UniProt Q8I206
# [15] = target: UniProt Q8I266
# [16] = target: UniProt Q8I2J3
# [17] = target: UniProt Q8I2V4
# [18] = target: UniProt Q8I2W2
# [19] = target: UniProt Q8I320
# [20] = target: UniProt Q8I367
# [21] = target: UniProt Q8I3J0
# [22] = target: UniProt Q8I479
# [23] = target: UniProt Q8I4X0
# [24] = target: UniProt Q8I502
# [25] = target: UniProt Q8I535
# [26] = target: UniProt Q8I5D2
# [27] = target: UniProt Q8I6U4
# [28] = target: UniProt Q8IAX5
# [29] = target: UniProt Q8IB72
# [30] = target: UniProt Q8IBS5
# [31] = target: UniProt Q8ID43
# [32] = target: UniProt Q8ID59
# [33] = target: UniProt Q8ID96
# [34] = target: UniProt Q8IDF9
# [35] = target: UniProt Q8IDV2
# [36] = target: UniProt Q8IE81
# [37] = target: UniProt Q8II79
# [38] = target: UniProt Q8IIG6
# [39] = target: UniProt Q8IIK8
# [40] = target: UniProt Q8IJM0
# [41] = target: UniProt Q8IJS7
# [42] = target: UniProt Q8IJT1
# [43] = target: UniProt Q8IJZ3
# [44] = target: UniProt Q8IJZ7
# [45] = target: UniProt Q8IL22
# [46] = target: UniProt Q8ILA4
# [47] = target: UniProt Q8ILC1
# [48] = target: UniProt Q8ILI2
# [49] = target: UniProt Q8ILL3
# [50] = target: UniProt Q8ILY9
# [51] = target: UniProt Q8IM16
# 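Note: native unpurified kinases from lysate captured on beads bearing immobilized kinase inhibitors, with bead-bound kinases quantified by mass spectrometry across compound doses.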
# Chain of UniProt Q7KQL3 (Q7KQL3 whole entry): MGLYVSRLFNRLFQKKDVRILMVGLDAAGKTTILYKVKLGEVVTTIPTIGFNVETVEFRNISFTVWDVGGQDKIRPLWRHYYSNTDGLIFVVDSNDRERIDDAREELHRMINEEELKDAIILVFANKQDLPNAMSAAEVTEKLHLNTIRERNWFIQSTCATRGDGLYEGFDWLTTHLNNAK
# Chain of UniProt Q8I266 (Q8I266 whole entry): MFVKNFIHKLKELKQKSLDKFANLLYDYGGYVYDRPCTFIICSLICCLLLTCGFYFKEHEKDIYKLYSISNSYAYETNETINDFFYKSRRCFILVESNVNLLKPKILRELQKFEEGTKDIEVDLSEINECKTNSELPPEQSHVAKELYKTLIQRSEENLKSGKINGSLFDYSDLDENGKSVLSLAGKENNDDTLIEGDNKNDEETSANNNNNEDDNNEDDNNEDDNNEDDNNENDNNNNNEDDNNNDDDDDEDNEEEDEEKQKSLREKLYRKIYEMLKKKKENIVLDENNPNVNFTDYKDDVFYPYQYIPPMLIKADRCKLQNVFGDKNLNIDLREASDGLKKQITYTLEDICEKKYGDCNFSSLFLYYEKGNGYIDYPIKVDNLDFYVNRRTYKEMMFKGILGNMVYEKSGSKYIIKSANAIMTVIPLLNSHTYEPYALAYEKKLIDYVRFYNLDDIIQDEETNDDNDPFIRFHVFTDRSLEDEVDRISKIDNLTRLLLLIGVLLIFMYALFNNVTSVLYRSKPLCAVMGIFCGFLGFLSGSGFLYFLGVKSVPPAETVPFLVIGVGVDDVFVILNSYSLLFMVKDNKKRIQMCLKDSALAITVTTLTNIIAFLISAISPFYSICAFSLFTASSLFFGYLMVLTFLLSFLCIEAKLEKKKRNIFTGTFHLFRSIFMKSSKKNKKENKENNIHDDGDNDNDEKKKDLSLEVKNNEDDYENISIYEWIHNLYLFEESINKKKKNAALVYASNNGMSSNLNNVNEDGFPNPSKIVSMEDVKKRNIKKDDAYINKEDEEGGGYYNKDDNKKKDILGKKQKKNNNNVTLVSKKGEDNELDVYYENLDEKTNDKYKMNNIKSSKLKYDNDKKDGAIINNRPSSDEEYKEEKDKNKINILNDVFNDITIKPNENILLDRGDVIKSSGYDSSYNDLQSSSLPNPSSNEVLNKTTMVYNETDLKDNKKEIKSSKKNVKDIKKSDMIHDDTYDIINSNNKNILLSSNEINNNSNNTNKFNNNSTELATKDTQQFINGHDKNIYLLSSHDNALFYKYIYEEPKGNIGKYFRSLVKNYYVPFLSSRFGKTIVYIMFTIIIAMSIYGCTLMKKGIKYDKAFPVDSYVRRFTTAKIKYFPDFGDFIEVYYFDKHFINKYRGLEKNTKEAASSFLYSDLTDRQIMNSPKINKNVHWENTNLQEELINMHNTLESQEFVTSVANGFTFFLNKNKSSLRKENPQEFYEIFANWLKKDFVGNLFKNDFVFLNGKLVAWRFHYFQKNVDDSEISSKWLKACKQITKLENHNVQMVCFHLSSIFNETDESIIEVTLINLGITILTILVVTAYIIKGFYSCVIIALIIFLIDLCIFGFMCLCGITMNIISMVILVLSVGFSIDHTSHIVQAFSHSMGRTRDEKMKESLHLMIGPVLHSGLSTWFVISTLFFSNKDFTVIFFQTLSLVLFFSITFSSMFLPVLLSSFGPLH
# Chain of UniProt Q8IM16 (Q8IM16 whole entry): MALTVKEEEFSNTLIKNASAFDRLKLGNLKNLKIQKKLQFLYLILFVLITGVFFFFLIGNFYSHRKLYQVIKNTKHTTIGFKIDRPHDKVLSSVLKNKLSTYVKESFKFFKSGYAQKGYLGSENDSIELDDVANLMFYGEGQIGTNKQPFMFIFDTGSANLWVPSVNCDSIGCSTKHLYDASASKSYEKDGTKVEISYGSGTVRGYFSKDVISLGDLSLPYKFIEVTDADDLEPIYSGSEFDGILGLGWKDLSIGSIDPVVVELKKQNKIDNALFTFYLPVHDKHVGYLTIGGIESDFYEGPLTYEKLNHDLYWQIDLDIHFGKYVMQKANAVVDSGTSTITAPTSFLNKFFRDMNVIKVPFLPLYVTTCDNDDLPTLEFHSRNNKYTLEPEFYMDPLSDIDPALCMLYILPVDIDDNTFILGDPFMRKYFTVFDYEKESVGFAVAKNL
# Chain of UniProt Q8IBS5 (Q8IBS5 whole entry): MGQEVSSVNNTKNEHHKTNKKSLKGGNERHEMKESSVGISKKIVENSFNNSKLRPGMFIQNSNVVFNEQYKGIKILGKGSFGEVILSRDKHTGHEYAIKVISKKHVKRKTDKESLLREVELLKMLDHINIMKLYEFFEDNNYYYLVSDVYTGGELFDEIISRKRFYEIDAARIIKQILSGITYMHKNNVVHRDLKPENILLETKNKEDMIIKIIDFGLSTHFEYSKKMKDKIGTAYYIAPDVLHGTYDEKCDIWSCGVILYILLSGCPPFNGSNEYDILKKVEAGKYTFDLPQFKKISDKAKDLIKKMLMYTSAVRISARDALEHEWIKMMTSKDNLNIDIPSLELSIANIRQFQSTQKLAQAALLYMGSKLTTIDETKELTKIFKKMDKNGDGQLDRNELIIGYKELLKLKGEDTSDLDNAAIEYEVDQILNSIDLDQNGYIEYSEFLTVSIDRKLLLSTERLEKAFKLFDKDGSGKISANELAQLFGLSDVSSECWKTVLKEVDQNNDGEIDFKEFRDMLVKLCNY
# Chain of UniProt Q8I1T8 (Q8I1T8 whole entry): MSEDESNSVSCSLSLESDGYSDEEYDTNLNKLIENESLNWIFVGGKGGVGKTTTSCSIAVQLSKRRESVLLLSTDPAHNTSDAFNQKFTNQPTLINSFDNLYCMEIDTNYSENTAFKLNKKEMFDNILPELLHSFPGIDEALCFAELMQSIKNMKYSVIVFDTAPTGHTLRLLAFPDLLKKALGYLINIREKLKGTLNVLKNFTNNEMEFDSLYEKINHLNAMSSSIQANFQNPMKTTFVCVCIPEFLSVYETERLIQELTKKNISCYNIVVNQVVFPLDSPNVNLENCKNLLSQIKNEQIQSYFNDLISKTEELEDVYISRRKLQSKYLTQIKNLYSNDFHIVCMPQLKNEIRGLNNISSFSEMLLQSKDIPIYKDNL
# Chain of UniProt Q8I4X0 (Q8I4X0 whole entry): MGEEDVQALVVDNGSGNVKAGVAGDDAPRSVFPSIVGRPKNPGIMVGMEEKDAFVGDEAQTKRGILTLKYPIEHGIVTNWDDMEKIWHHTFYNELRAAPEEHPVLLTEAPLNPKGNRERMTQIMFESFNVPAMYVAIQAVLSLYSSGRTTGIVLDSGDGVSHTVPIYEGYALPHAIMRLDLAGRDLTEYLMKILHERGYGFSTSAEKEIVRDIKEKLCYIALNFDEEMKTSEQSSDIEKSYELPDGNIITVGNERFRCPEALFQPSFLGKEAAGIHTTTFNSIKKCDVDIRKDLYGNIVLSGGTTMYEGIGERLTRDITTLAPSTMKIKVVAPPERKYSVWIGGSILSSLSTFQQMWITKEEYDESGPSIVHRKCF
# Chain of UniProt Q8ILC1 (Q8ILC1 whole entry): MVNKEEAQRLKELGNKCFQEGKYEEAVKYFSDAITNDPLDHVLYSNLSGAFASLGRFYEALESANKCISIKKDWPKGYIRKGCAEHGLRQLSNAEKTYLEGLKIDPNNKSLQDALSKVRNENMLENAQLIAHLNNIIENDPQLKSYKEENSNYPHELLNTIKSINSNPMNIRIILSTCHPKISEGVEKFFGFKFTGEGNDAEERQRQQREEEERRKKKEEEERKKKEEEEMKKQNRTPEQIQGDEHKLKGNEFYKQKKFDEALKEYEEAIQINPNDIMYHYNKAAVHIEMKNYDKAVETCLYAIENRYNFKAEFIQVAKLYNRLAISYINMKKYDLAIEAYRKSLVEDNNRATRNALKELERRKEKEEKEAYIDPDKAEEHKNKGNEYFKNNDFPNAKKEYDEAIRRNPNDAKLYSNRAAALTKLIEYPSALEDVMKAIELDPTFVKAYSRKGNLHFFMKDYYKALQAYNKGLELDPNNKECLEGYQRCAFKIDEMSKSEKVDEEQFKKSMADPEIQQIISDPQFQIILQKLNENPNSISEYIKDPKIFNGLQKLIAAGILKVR
# Chain of UniProt Q8I6U4 (Q8I6U4 whole entry): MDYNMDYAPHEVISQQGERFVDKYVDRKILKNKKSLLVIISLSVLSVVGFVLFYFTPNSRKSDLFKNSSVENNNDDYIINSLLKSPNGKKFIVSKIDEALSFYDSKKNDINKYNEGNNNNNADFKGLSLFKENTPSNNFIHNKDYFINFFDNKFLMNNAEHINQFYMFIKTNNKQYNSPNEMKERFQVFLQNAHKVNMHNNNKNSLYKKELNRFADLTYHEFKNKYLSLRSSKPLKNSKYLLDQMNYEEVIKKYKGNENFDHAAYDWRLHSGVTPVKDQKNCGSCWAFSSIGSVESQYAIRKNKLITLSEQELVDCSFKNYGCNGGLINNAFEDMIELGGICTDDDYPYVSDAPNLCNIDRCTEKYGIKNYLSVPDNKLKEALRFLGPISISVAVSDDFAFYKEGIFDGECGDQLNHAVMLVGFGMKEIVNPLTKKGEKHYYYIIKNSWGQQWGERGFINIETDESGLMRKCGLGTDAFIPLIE
# Chain of UniProt Q8I2J3 (Q8I2J3 whole entry): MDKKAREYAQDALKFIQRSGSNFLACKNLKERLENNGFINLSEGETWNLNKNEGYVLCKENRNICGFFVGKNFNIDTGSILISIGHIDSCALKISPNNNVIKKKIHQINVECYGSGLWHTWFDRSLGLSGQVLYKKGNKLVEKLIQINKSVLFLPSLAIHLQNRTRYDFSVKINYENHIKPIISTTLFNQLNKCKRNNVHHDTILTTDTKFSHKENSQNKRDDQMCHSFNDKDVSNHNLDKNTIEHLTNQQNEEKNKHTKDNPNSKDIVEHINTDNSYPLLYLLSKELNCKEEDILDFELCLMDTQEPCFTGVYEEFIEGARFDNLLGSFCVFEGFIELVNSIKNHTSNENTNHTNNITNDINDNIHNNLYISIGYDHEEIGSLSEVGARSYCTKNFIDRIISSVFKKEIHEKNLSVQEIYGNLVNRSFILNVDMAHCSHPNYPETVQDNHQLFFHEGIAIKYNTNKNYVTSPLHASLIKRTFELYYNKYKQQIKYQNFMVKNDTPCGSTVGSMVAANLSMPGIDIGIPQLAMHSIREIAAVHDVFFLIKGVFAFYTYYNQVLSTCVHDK
smiles,measurement,setting,value
O=c1[nH]c2ccc(Cl)cc2c(NC2CN3CCC2CC3)c1-c1nc2ccccc2[nH]1 (stereo unspecified) [CHIR-124],IC50,[1],> 20 µM
same,IC50,[2],> 20 µM
same,IC50,[3],> 20 µM
same,IC50,[4],> 20 µM
same,IC50,[5],> 20 µM
same,IC50,[6],> 20 µM
same,IC50,[7],> 20 µM
same,IC50,[8],> 20 µM
same,IC50,[9],> 20 µM
same,IC50,[10],> 20 µM
same,IC50,[11],> 20 µM
same,IC50,[12],> 20 µM
same,IC50,[13],> 20 µM
same,IC50,[14],> 20 µM
same,IC50,[15],> 20 µM
same,IC50,[16],> 20 µM
same,IC50,[17],> 20 µM
same,IC50,[18],> 20 µM
same,IC50,[19],> 20 µM
same,IC50,[20],> 20 µM
same,IC50,[21],> 20 µM
same,IC50,[22],> 20 µM
same,IC50,[23],> 20 µM
same,IC50,[24],> 20 µM
same,IC50,[25],< 0.0823 µM
same,IC50,[26],> 20 µM
same,IC50,[27],> 20 µM
same,IC50,[28],> 20 µM
same,IC50,[29],> 20 µM
same,IC50,[30],> 20 µM
same,IC50,[31],> 20 µM
same,IC50,[32],> 20 µM
same,IC50,[33],> 20 µM
same,IC50,[34],> 20 µM
same,IC50,[35],> 20 µM
same,IC50,[36],> 20 µM
same,IC50,[37],> 20 µM
same,IC50,[38],> 20 µM
same,IC50,[39],> 20 µM
same,IC50,[40],> 20 µM
same,IC50,[41],> 20 µM
same,IC50,[42],> 20 µM
same,IC50,[43],> 20 µM
same,IC50,[44],> 20 µM
same,IC50,[45],> 20 µM
same,IC50,[46],> 20 µM
same,IC50,[47],> 20 µM
same,IC50,[48],> 20 µM
same,IC50,[49],> 20 µM
same,IC50,[50],> 20 µM
same,IC50,[51],> 20 µM
